# Test system: T1, HpeCBA
# T1 construct: gene hpeB; hpeCBA co-expressed in Rhodococcus jostii RHA1; untagged complex, ammonium sulfate and anion exchange; with Phosphophenylethanone carboxylase, biotin carboxylase; Phosphophenylethanone carboxylase, biotin carboxyl carrier protein
# Experiment: coupled spectrophotometric assay (pyruvate kinase / lactate dehydrogenase, NADH oxidation)
# Assay type: biochemical, Rhodococcus rhodochrous
# Details: 20 mM MOPS (I = 0.1 M), pH 7.5, 25 °C; ATP, Mg2+, HCO3-
# Description: coupled spectrophotometric assay (pyruvate kinase / lactate dehydrogenase, NADH oxidation) on HpeCBA
row,Compound,Km [µM]
1,CC(=O)c1ccc(OP(=O)(O)O)cc1 [PAP],69
2,COc1cc(C(C)=O)ccc1OP(=O)(O)O [PAV],560
